Results as given in patent US9750677B2, “Use of metal complexes which are mimetics of SOD as food agents and as cosmetics” (Universitat de València, priority 2014, dated 2017).
“And” between values parts separate entries of the source, which are not always exact repeats. Identical values can stand only once.

Test system: Medaka embryos
Experiment: Survival analysis using Medaka fish embryos, mortality at 72 hours in H2O2
Format: in vivo, Medaka (Oryzias latipes)
Conditions: stage 8 embryos pre-treated 4 days with 100 μM vitamin C, then 72 hours in 22.5 mM H2O2; for mortality, mean (± standard error in text): 6 replicates
Method: Individual adults (strain Cab, Carolina Biological Supply, (North Carolina)), were held in tanks with continuous water flow at 27° C., and a photoperiod of 14 hours of light and 10 hours of darkness. The fish were fed twice a day with Artemia nauplii, which were hatched daily from commercial Sanders® cysts, and with dry food once per day.
Fertilized eggs were collected daily, deposited in Yamamoto solution (0.13 M NaCl, 2.7 mM KCl, 1.8 mM CaCl2 and 0.24 mM NaHCO3, pH 7.3) (Yamamoto T., Medaka (killifish): Biology and strains. 1975, Tokyo: Keigaku Pub. Co), and were kept in the incubator at 26° C. The embryo stage was determined according to the description of Iwamatsu (Iwamatsu T., Stages of normal development in the medaka Oryzias latipes. Mech Dev. 2004, Vol. 121, pages 605-618).
Medaka embryos that were in stage 8 (early morula stage, Iwamatsu, 2004) were separated into 2 groups of 60 embryos and one group of 30 embryos. A group of 60 embryos were treated for 4 days with Pytren-4Q+Mn dissolved in Yamamoto solution at a concentration of 250 μM. The other group of 60 embryos were incubated for 4 days in Yamamoto solution. This group was used as a negative control. The group of 30 embryos, positive control group, were treated for 4 days with a Yamamoto solution of vitamin C, an antioxidant compound, at a concentration of 100 μM. After 4 days of incubation, the embryos were washed with Yamamoto solution. The groups of 60 embryos were separated one by one into two groups of 30 embryos. The embryos of all the groups were individually placed into the wells of 96-well plates, each well containing 200 μl of Yamamoto solution with H2O2, at different concentrations depending on the extension of incubation time at which mortality was observed. […] Thirty embryos of each initial group of 60 embryos and the 30 embryos of the group treated with vitamin C were treated with H2O2 Yamamoto solution at a concentration of 22.5 mM. […] Thirty embryos of each initial group of 60 embryos were treated with H2O2 Yamamoto solution at a concentration of 7.5 mM. […]

Question: With O=C1O[C@H]([C@@H](O)CO)C(O)=C1O [vitamin C] as the compound, how does the “mortality, mean (± standard error in text)” value read?
Answer: The value was 25.99±5.25%.

Question: And the “mortality, mean (± standard error in text)” value (listed as Vitamin C)?
Answer: The value was 25.99%.

Question: And the “mortality, single replicates” value (30 embryos per replicate)?
Answer: The value was 14.3% and 20.8% (2×) and 40.63% and 43.75% and 15.63%.
